Assay results reported in ChEMBL document CHEMBL5726119, “Macrocyclic compounds as IRAK4 inhibitors for the treatment of inflammatory diseases” (2017).

Target: T1, Interleukin-1 receptor-associated kinase 4 (Homo sapiens, UniProt Q9NWZ3)
T1 sequence (Q9NWZ3 whole entry): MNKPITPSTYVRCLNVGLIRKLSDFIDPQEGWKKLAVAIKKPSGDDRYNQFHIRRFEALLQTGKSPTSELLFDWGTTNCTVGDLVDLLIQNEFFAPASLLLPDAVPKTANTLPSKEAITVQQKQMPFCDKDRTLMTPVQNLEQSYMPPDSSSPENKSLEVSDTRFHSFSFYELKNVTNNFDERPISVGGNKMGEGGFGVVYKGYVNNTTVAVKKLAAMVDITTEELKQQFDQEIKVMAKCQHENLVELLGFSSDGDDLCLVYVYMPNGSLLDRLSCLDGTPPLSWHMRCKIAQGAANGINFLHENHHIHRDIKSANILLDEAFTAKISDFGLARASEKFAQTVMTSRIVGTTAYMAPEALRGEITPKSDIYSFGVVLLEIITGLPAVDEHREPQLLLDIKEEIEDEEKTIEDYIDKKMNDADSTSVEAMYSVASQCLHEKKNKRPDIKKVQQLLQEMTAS
Test: Biochemical Assay: The biochemical assay is in a AlphaScreen format. The kinase reaction is based on the IRAK-4 phosphorylation of a biotin labeled peptide. The phosphopeptide is incubated with anti-phosphothreonine antibody as well as streptavidin- and protein A-coated beads. Binding of the protein-A coated beads to the antibody and the streptavidin beads to the peptide, leads to an energy transfer from one bead to the other, ultimately producing a luminescent/fluorescent signal.Generally, the kinase reaction is carried out at 1 nM IRAK4, 1.6 μM peptide, 10 μM ATP in reaction buffer 50 mM Hepes, 60 mM NaCl, 5 mM MgCl2, 0.25 mM MnCl2, 2 mM DTT, 0.01% BSA, 0.01% Tween-20) for 3.5 h at RT.

SMILES	IC50 [µM]
Cn1cc2c(n1)C(=O)NCCOCCOc1cc(ccn1)-c1cc(ccn1)C(=O)N2	< 1
Cn1cc2c(n1)C(=O)NCCOCCOc1cc(ccn1)-c1cc(cs1)C(=O)N2	< 0.1
Cn1cc2c(n1)C(=O)NCCOCCOc1cc(ccn1)-c1cncc(c1)C(=O)N2	< 10

Continued, values first:

IC50 [µM]	SMILES
> 10	O=C1NCCCOC2CCCC(CNc3cc(ccn3)-c3nc1cs3)C2 (stereo not given)
< 10	CC(C)C1NC(=O)c2nn(C3CCOCC3)cc2NC(=O)c2csc(n2)-c2ccnc(c2)CCCNC1=O (stereo not given)
